Reference: ChEMBL document CHEMBL1201862, “PubChem BioAssay data set” (2004)
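Protocol summary: plate cells (96-well), add compound at 5 concentrations, incubate 48 h, interpolate endpoints linearly. Abbreviation: GI50, concentration required for 50% inhibition of growth.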 The source made the active and inactive calls. No stated cut-off is given here; in the data, active = GI50 up to about 1.1 µM and inactive = higher.

Assays:
Experiment in all cases: inhibition of tumour cell growth, NCI panel, 48 h
DMS-114 = test system: DMS-114
DMS-273 = test system: DMS-273
HOP-18 = test system: HOP-18
KM-20L2 = test system: KM-20L2
LXFL 529 = test system: LXFL 529
M19-MEL = test system: M19-MEL
RXF 631 = test system: RXF 631
SNB-78 = test system: SNB-78
XF498 = test system: XF498

Measured: GI50

CC(C)C(=O)Nc1nc2[nH]cnc2c(=O)[nH]1
inactive: DMS-114 > 100 µM | DMS-273 > 100 µM | HOP-18 > 100 µM | KM-20L2 > 100 µM | LXFL 529 > 100 µM | M19-MEL > 100 µM | RXF 631 > 100 µM | SNB-78 > 100 µM | XF498 > 100 µM

CCc1cccc(C)c1NC(=O)NS(=O)(=O)c1ccc(C)cc1
inactive: DMS-114 > 100 µM | DMS-273 > 100 µM | HOP-18 > 100 µM | KM-20L2 > 100 µM | LXFL 529 > 100 µM | M19-MEL > 100 µM | RXF 631 > 100 µM | SNB-78 > 100 µM | XF498 > 100 µM

O=C1c2ccccc2C(=O)c2sc(Nc3ccc(Cl)c(Cl)c3)nc21
inactive: DMS-114 1.67 µM | DMS-273 5.3 µM | HOP-18 5.06 µM | KM-20L2 19.5 µM | LXFL 529 1.82 µM | M19-MEL 1.12 µM | RXF 631 7.98 µM | SNB-78 2.52 µM | XF498 2.54 µM

CC(C)CC(=O)N1CCN(C(=O)CC(C)C)c2ccccc21
inactive: DMS-114 > 100 µM | DMS-273 > 100 µM | HOP-18 10.1 µM | KM-20L2 > 100 µM | LXFL 529 > 100 µM | M19-MEL > 100 µM | RXF 631 > 100 µM | SNB-78 91.6 µM | XF498 > 100 µM

CC(=O)OC1CC[C@@]2(C)C(CC[C@]3(C)C2CC=C2[C@@H]4CC(C)(C)CCC4(C)CCC23C)[C@@]1(C)C(=O)O (some centres undefined)
inactive: DMS-114 16.4 µM | DMS-273 16.4 µM | HOP-18 21.9 µM | KM-20L2 13.9 µM | LXFL 529 13.3 µM | M19-MEL 22.2 µM | RXF 631 12.9 µM | SNB-78 20.5 µM | XF498 20.5 µM

O=C1c2cccc3cc([N+](=O)[O-])cc(c23)C(=O)N1NC1=NCCN1
inactive: DMS-114 > 100 µM | DMS-273 > 100 µM | HOP-18 > 100 µM | KM-20L2 > 100 µM | LXFL 529 > 100 µM | M19-MEL > 100 µM | RXF 631 > 100 µM | SNB-78 > 100 µM | XF498 > 100 µM
